Assay results published in paper PMC6199744, “Development of Chemical Proteomics for the Folateome and Analysis of the Kinetoplastid Folateome” (ACS Infectious Diseases, 2018).

System: L. major lysate proteins
Assay: Multitargeted bead mixture chemoproteomics, single concentration competition, proteome-wide
Assay type: binding
Settings: for fold change: vehicle control = 1

NCCCNc1ccc(C(=O)NC(CCC(=O)O)C(=O)O)cc1 (stereo not drawn) [compound 7]
fold change (protein LMJF.15.0040 HYPOTHETICAL PROTEIN, CONSERVED (Possible lysine decarboxylase, putative)): 0.73 | fold change vs vehicle control (protein LMJF.15.0690 HY[…], CONSERVED): 1.02 | fold change (protein LMJF.15.1010 GLUTAMATE DEHYDROGENASE): 1.04 | fold change (protein LMJF.15.1190 HY[…], CONSERVED (cyclic nucleotide-binding domain containing protein, putative)): 1.08 | fold change vs vehicle control (protein LMJF.16.0520 HY[…], CONSERVED): 1.02 | fold change vs vehicle control (protein LMJF.16.0540 ASPARTATE CARBAMOYLTRANSFERASE, PUTATIVE): 0.99 | fold change relative to vehicle control (protein LMJF.16.0760, TRANSALDOLASE, PUTATIVE): 0.99 | fold change vs vehicle control (protein LMJF.16.0940 DYNEIN LIGHT CHAIN, PUTATIVE): 1.11 | fold change relative to vehicle control (protein LMJF.16.1180, COATOMER DELTA SUBUNIT-LIKE PROTEIN): 1.2 | fold change relative to vehicle control (protein LMJF.16.1320, […], PUTATIVE): 1.34 | fold change relative to vehicle control (protein LMJF.16.1420, HY[…], CONSERVED): 1.05 | fold change relative to vehicle control (protein LMJF.17.0081, […] 1-ALPHA): 1.09 | fold change relative to vehicle control (protein LMJF.18.0270, GLYCOGEN SYNTHASE KINASE, PUTATIVE): 0.98 | fold change (protein LMJF.18.0580 P[…]-COA HYDRATASE, PUTATIVE): 1.04 | fold change relative to vehicle control (protein LMJF.18.0680, CITRATE SYNTHASE, PUTATIVE): 1.06 | fold change vs vehicle control (protein LMJF.18.1010 DYNEIN LIGHT CHAIN 2B, CYTOPLASMIC, PUTATIVE): 1.15 | fold change vs vehicle control (protein LMJF.18.1210 PROLYL-TRNA SYNTHETASE, PUTATIVE,BI[…]-TRNA SYNTHETASE, PUTATIVE): 1.03 | fold change vs vehicle control (protein LMJF.18.1370 HEAT SHOCK PROTEIN, PUTATIVE): 1.14 | fold change (protein LMJF.19.0200 ADP,ATP CARRIER PROTEIN 1, MIT[…], PUTATIVE): 1.08 | fold change vs vehicle control (protein LMJF.19.1120 […]-ATP-ASE SUBUNIT, PUTATIVE): 1.07 | fold change vs vehicle control (protein LMJF.19.1160 HYPOTHETICAL PROTEIN, CONSERVED): 0.99 | fold change vs vehicle control (protein LMJF.19.1560 INOSINE-5'-MONOPHOSPHATE DEHYDROGENASE): 0.97 | fold change relative to vehicle control (protein LMJF.19.1620, POTASSIUM VOLTAGE-GATED CHANNEL, PUTATIVE): 1.12 | fold change vs vehicle control (protein LMJF.20.1280 SMALL MYRISTOYLATED PROTEIN 4, PUTATIVE): 0.92 | fold change (protein LMJF.21.0810 METHIONYL-TRNA SYNTHETASE, PUTATIVE): 0.87 | fold change (protein LMJF.21.1450 ARGININE N-METHYLTRANSFERASE, TYPE II, PUTATIVE): 1.06 | fold change vs vehicle control (protein LMJF.21.1830 […] 5 SUBUNIT, PUTATIVE,20S […] ALPHA 5, (PUTATIVE)): 1.01 | fold change (protein LMJF.22.0230 AMINO ACID PERMEASE, PUTATIVE): 1.14 | fold change vs vehicle control (protein LMJF.22.0570 […] SUBUNIT 1, PUTATIVE): 1.04 | fold change vs vehicle control (protein LMJF.22.0730 HYPOTHETICAL PROTEIN, CONSERVED): 0.96 | fold change (protein LMJF.22.0770 NADH-CYTOCHROME B5 REDUCTASE, PUTATIVE): 0.85 | fold change relative to vehicle control (protein LMJF.23.0020, HYPOTHETICAL PROTEIN, CONSERVED): 1.99 | fold change relative to vehicle control (protein LMJF.23.0040, PEROXIDOXIN): 0.99 | fold change relative to vehicle control (protein LMJF.23.0080, HYPOTHETICAL PROTEIN, CONSERVED): 0.99 | fold change (protein LMJF.23.0210 ATP-BINDING CASSETTE PROTEIN SUBFAMILY C, MEMBER 1, PUTATIVE): 1.03 | fold change (protein LMJF.23.0370 CYTOCHROME C OXIDASE SUBUNIT 10, PUTATIVE): 0.97 | fold change relative to vehicle control (protein LMJF.23.0540, ACETYL-COA SYNTHETASE, PUTATIVE): 1.01 | fold change vs vehicle control (protein LMJF.23.0560 KINESIN, PUTATIVE): 0.91 | fold change vs vehicle control (protein LMJF.23.1410 HY[…], CONSERVED): 1.12 | fold change relative to vehicle control (protein LMJF.24.0070, HY[…], CONSERVED): 1.03 | fold change (protein LMJF.24.0140 ANKYRIN/TPR REPEAT PROTEIN): 0.93 | fold change (protein LMJF.24.0400 HYPOTHETICAL PROTEIN, CONSERVED (TPR repeat, putative)): 0.96 | fold change relative to vehicle control (protein LMJF.24.1510, IGE-DEPENDENT HISTAMINE-RELEASING FACTOR, PUTATIVE): 0.85 | fold change relative to vehicle control (protein LMJF.24.1630, SUCCINATE DEHYDROGENASE FLAVOPROTEIN, PUTATIVE): 1 | fold change relative to vehicle control (protein LMJF.24.2060, TRANSKETOLASE): 1.02 | fold change relative to vehicle control (protein LMJF.25.0010, BETA […] TRANSFERASE): 1.21 | fold change relative to vehicle control (protein LMJF.25.0910, CYCLOPHILIN A): 0.9 | fold change vs vehicle control (protein LMJF.25.1130 […] OXIDASE VII, PUTATIVE): 1.09 | fold change relative to vehicle control (protein LMJF.25.1180, ATPASE BETA SUBUNIT, PUTATIVE): 1.06 | fold change vs vehicle control (protein LMJF.25.1610 HY[…], CONSERVED): 1.08 | fold change vs vehicle control (protein LMJF.25.1620 HYPOTHETICAL PROTEIN, CONSERVED): 0.99 | fold change (protein LMJF.25.2340 SERINE/THREONINE-PROTEIN KINASE, PUTATIVE,PROTEIN KINASE, PUTATIVE): 0.83 | fold change relative to vehicle control (protein LMJF.26.0630, HY[…], CONSERVED): 1.11 | fold change vs vehicle control (protein LMJF.26.1240 HEAT SHOCK PROTEIN 70-RELATED PROTEIN): 1.06 | fold change (protein LMJF.26.1710 […] OXIDASE SUBUNIT V, PUTATIVE): 1.03 | fold change vs vehicle control (protein LMJF.26.2480 CDP-DIACYLGLYCEROL--INOSITOL 3-[…], PUTATIVE): 1.06 | fold change vs vehicle control (protein LMJF.26.2560 HYPOTHETICAL PROTEIN, CONSERVED): 0.94 | fold change vs vehicle control (protein LMJF.27.0190 PROTEASOME ALPHA 7 SUBUNIT, PUTATIVE): 0.97 | fold change (protein LMJF.27.0650 HY[…], CONSERVED): 1.07 | fold change (protein LMJF.27.0700 HYPOTHETICAL PROTEIN, CONSERVED): 1.67 | fold change vs vehicle control (protein LMJF.27.0760 GTP-binding protein homologue): 0.78 | fold change vs vehicle control (protein LMJF.27.1060 CYSTEINE DESULFURASE, PUTATIVE): 0.93 | fold change vs vehicle control (protein LMJF.27.1110 MIT[…] BINDING PROTEIN 1,GBP21, MRP1): 1.07 | fold change (protein LMJF.27.1250 HYPOTHETICAL PROTEIN, CONSERVED (Serine-threonine kinase receptor-associated protein, putative)): 0.97 | fold change relative to vehicle control (protein LMJF.27.1390, 60S ACIDIC RIBOSOMAL SUBUNIT PROTEIN, PUTATIVE): 1.05 | fold change (protein LMJF.27.1460 PROTEASOME REGULATORY NON-ATP-ASE SUBUNIT 3, PUTATIVE): 0.87
